{
  "source": "ChEMBL document CHEMBL4004838",
  "about": "“Design and synthesis of novel phenyl -1, 4-beta-carboline-hybrid molecules as potential anticancer agents” (Eur J Med Chem, 2017)",
  "assay_type_in_all_cases": "functional",
  "key": {"[1]": {"tested_on": "HOP-92", "experiment": "Growth inhibition of human HOP92 cells assessed as cell growth at 10^-5 M incubated for 48 hrs by sulforhodamine B assay relative to control", "details": "HOP-92, 48 h, read-out: Activity"}, "[2]": {"tested_on": "COLO 205", "experiment": "Growth inhibition of human COLO205 cells assessed as cell growth at 10^-5 M incubated for 48 hrs by sulforhodamine B assay relative to control", "details": "COLO 205, 48 h, read-out: Activity"}, "[3]": {"tested_on": "HL-60(TB)", "experiment": "Growth inhibition of human HL-60(TB) cells assessed as cell growth at 10^-5 M incubated for 48 hrs by sulforhodamine B assay relative to control", "details": "HL-60, 48 h, read-out: Activity"}, "[4]": {"tested_on": "HCT-15", "experiment": "Growth inhibition of human HCT15 cells assessed as cell growth at 10^-5 M incubated for 48 hrs by sulforhodamine B assay relative to control", "details": "HCT-15, 48 h, read-out: Activity"}, "[5]": {"tested_on": "M14", "experiment": "Growth inhibition of human M14 cells assessed as cell growth at 10^-5 M incubated for 48 hrs by sulforhodamine B assay relative to control", "details": "M14, 48 h, read-out: Activity"}, "[6]": {"tested_on": "SK-MEL-2", "experiment": "Growth inhibition of human SK-MEL-2 cells assessed as cell growth at 10^-5 M incubated for 48 hrs by sulforhodamine B assay relative to control", "details": "SK-MEL-2, 48 h, read-out: Activity"}, "[7]": {"tested_on": "Hs-578T", "experiment": "Growth inhibition of human Hs 578T cells assessed as cell growth at 10^-5 M incubated for 48 hrs by sulforhodamine B assay relative to control", "details": "read-out: Activity"}, "[8]": {"tested_on": "SF-295", "experiment": "Growth inhibition of human SF295 cells assessed as cell growth at 10^-5 M incubated for 48 hrs by sulforhodamine B assay relative to control", "details": "SF-295, 48 h, read-out: Activity"}, "[9]": {"tested_on": "PC-3", "experiment": "Growth inhibition of human PC3 cells assessed as cell growth at 10^-5 M incubated for 48 hrs by sulforhodamine B assay relative to control", "details": "PC-3, 48 h, read-out: Activity"}, "[10]": {"tested_on": "SR", "experiment": "Growth inhibition of human SR cells assessed as cell growth at 10^-5 M incubated for 48 hrs by sulforhodamine B assay relative to control", "details": "read-out: Activity"}, "[11]": {"tested_on": "MCF7", "experiment": "Growth inhibition of human MCF7 cells assessed as cell growth at 10^-5 M incubated for 48 hrs by sulforhodamine B assay relative to control", "details": "MCF7, 48 h, read-out: Activity"}, "[12]": {"tested_on": "SW-620", "experiment": "Growth inhibition of human SW620 cells assessed as cell growth at 10^-5 M incubated for 48 hrs by sulforhodamine B assay relative to control", "details": "SW-620, 48 h, read-out: Activity"}, "[13]": {"tested_on": "HCT-116", "experiment": "Growth inhibition of human HCT116 cells assessed as cell growth at 10^-5 M incubated for 48 hrs by sulforhodamine B assay relative to control", "details": "HCT-116, 48 h, read-out: Activity"}, "[14]": {"tested_on": "SF-268", "experiment": "Growth inhibition of human SF268 cells assessed as cell growth at 10^-5 M incubated for 48 hrs by sulforhodamine B assay relative to control", "details": "SF-268, 48 h, read-out: Activity"}, "[15]": {"tested_on": "786-0", "experiment": "Growth inhibition of human 786-0 cells assessed as cell growth at 10^-5 M incubated for 48 hrs by sulforhodamine B assay relative to control", "details": "786-0, 48 h, read-out: Activity"}, "[16]": {"tested_on": "MDA-MB-435", "experiment": "Growth inhibition of human MDA-MB-435 cells assessed as cell growth at 10^-5 M incubated for 48 hrs by sulforhodamine B assay relative to control", "details": "MDA-MB-435, 48 h, read-out: Activity"}, "[17]": {"tested_on": "NCI/ADR-RES", "experiment": "Growth inhibition of human NCI-ADR-RES cells assessed as cell growth at 10^-5 M incubated for 48 hrs by sulforhodamine B assay relative to control", "details": "read-out: Activity"}, "[18]": {"tested_on": "RPMI-8226", "experiment": "Growth inhibition of human RPMI8226 cells assessed as cell growth at 10^-5 M incubated for 48 hrs by sulforhodamine B assay relative to control", "details": "RPMI-8226, 48 h, read-out: Activity"}, "[19]": {"tested_on": "K562", "experiment": "Growth inhibition of human K562 cells assessed as cell growth at 10^-5 M incubated for 48 hrs by sulforhodamine B assay relative to control", "details": "K562, 48 h, read-out: Activity"}, "[20]": {"tested_on": "NCI-H226", "experiment": "Growth inhibition of human NCI-H226 cells assessed as cell growth at 10^-5 M incubated for 48 hrs by sulforhodamine B assay relative to control", "details": "NCI-H226, 48 h, read-out: Activity"}, "[21]": {"tested_on": "NCI-H522", "experiment": "Growth inhibition of human NCI-H522 cells assessed as cell growth at 10^-5 M incubated for 48 hrs by sulforhodamine B assay relative to control", "details": "NCI-H522, 48 h, read-out: Activity"}, "[22]": {"tested_on": "U-251", "experiment": "Growth inhibition of human U251 cells assessed as cell growth at 10^-5 M incubated for 48 hrs by sulforhodamine B assay relative to control", "details": "U-251, 48 h, read-out: Activity"}, "[23]": {"tested_on": "A498", "experiment": "Growth inhibition of human A498 cells assessed as cell growth at 10^-5 M incubated for 48 hrs by sulforhodamine B assay relative to control", "details": "A498, 48 h, read-out: Activity"}, "[24]": {"tested_on": "NCI-H322M", "experiment": "Growth inhibition of human NCI-H322M cells assessed as cell growth at 10^-5 M incubated for 48 hrs by sulforhodamine B assay relative to control", "details": "read-out: Activity"}, "[25]": {"tested_on": "KM12", "experiment": "Growth inhibition of human KM12 cells assessed as cell growth at 10^-5 M incubated for 48 hrs by sulforhodamine B assay relative to control", "details": "KM12, 48 h, read-out: Activity"}, "[26]": {"tested_on": "HOP-62", "experiment": "Growth inhibition of human HOP62 cells assessed as cell growth at 10^-5 M incubated for 48 hrs by sulforhodamine B assay relative to control", "details": "HOP-62, 48 h, read-out: Activity"}, "[27]": {"tested_on": "Malme-3M", "experiment": "Growth inhibition of human MALME-3M cells assessed as cell growth at 10^-5 M incubated for 48 hrs by sulforhodamine B assay relative to control", "details": "read-out: Activity"}, "[28]": {"tested_on": "NCI-H23", "experiment": "Growth inhibition of human NCI-H23 cells assessed as cell growth at 10^-5 M incubated for 48 hrs by sulforhodamine B assay relative to control", "details": "NCI-H23, 48 h, read-out: Activity"}, "[29]": {"tested_on": "CAKI-1", "experiment": "Growth inhibition of human Caki1 cells assessed as cell growth at 10^-5 M incubated for 48 hrs by sulforhodamine B assay relative to control", "details": "CAKI-1, 48 h, read-out: Activity"}, "[30]": {"tested_on": "NCI-H460", "experiment": "Growth inhibition of human NCI-H460 cells assessed as cell growth at 10^-5 M incubated for 48 hrs by sulforhodamine B assay relative to control", "details": "NCI-H460, 48 h, read-out: Activity"}, "[31]": {"tested_on": "CCRF-CEM", "experiment": "Growth inhibition of human CCRF-CEM cells assessed as cell growth at 10^-5 M incubated for 48 hrs by sulforhodamine B assay relative to control", "details": "read-out: Activity"}, "[32]": {"tested_on": "A549", "experiment": "Growth inhibition of human A549/ATCC cells assessed as cell growth at 10^-5 M incubated for 48 hrs by sulforhodamine B assay relative to control", "details": "A549, 48 h, read-out: Activity"}},
  "data": [
    {"smiles": "Cc1n[nH]c2c1C(c1ccc(C3NCCc4c3[nH]c3ccccc43)cc1)C(C#N)=C(N)O2", "note": "(configuration not stated)", "values": [
      {"measurement": "growth at 10 µM", "setting": "[1]", "result": 88.8, "unit": "%"},
      {"measurement": "growth at 10 µM", "setting": "[2]", "result": 92.4, "unit": "%"},
      {"measurement": "growth at 10 µM", "setting": "[3]", "result": 101, "unit": "%"},
      {"measurement": "growth at 10 µM", "setting": "[4]", "result": 87.7, "unit": "%"},
      {"measurement": "growth at 10 µM", "setting": "[5]", "result": 86.7, "unit": "%"},
      {"measurement": "growth at 10 µM", "setting": "[6]", "result": 86, "unit": "%"},
      {"measurement": "growth at 10 µM", "setting": "[7]", "result": 87.7, "unit": "%"},
      {"measurement": "growth at 10 µM", "setting": "[8]", "result": 86.9, "unit": "%"},
      {"measurement": "growth at 10 µM", "setting": "[9]", "result": 72.3, "unit": "%"},
      {"measurement": "growth at 10 µM", "setting": "[10]", "result": 113, "unit": "%"},
      {"measurement": "growth at 10 µM", "setting": "[11]", "result": 78.8, "unit": "%"},
      {"measurement": "growth at 10 µM", "setting": "[12]", "result": 89.9, "unit": "%"},
      {"measurement": "growth at 10 µM", "setting": "[13]", "result": 76.5, "unit": "%"},
      {"measurement": "growth at 10 µM", "setting": "[14]", "result": 92.9, "unit": "%"},
      {"measurement": "growth at 10 µM", "setting": "[15]", "result": 97.4, "unit": "%"},
      {"measurement": "growth at 10 µM", "setting": "[16]", "result": 96.3, "unit": "%"},
      {"measurement": "growth at 10 µM", "setting": "[17]", "result": 96.3, "unit": "%"},
      {"measurement": "growth at 10 µM", "setting": "[18]", "result": 72.1, "unit": "%"},
      {"measurement": "growth at 10 µM", "setting": "[19]", "result": 74.3, "unit": "%"},
      {"measurement": "growth at 10 µM", "setting": "[20]", "result": 87, "unit": "%"},
      {"measurement": "growth at 10 µM", "setting": "[21]", "result": 81.8, "unit": "%"},
      {"measurement": "growth at 10 µM", "setting": "[22]", "result": 87.5, "unit": "%"},
      {"measurement": "growth at 10 µM", "setting": "[23]", "result": 67.1, "unit": "%"},
      {"measurement": "growth at 10 µM", "setting": "[24]", "result": 97.7, "unit": "%"},
      {"measurement": "growth at 10 µM", "setting": "[25]", "result": 91.9, "unit": "%"},
      {"measurement": "growth at 10 µM", "setting": "[26]", "result": 83, "unit": "%"},
      {"measurement": "growth at 10 µM", "setting": "[27]", "result": 77, "unit": "%"},
      {"measurement": "growth at 10 µM", "setting": "[28]", "result": 87.7, "unit": "%"},
      {"measurement": "growth at 10 µM", "setting": "[29]", "result": 63.2, "unit": "%"},
      {"measurement": "growth at 10 µM", "setting": "[30]", "result": 91.8, "unit": "%"},
      {"measurement": "growth at 10 µM", "setting": "[31]", "result": 83.7, "unit": "%"},
      {"measurement": "growth at 10 µM", "setting": "[32]", "result": 84.9, "unit": "%"}
    ]}
  ]
}
